Results on five molecules are retold here after PMC8370991, “Structural basis for the inhibition of HTLV-1 integration inferred from cryo-EM deltaretroviral intasome structures” (Nature Communications, 2021).

Like-named read-outs stand apart in the source and are kept apart here.

The EC50 is the concentration that produces a half-maximal response.

The assay concerns HTLV-1. Description: MT-2-Jurkat cell-to-cell HTLV-1 infection, proviral load by qPCR. It is filed as cell-based. The procedure: Six of the most promising compounds were selected for assessment of their efficacy in inhibiting HTLV-1 viral infection. To this end, we employed an MT-2-Jurkat co-culture relying on cell-to-cell-based HTLV-1 transmission, which we successfully used in a previous study. In this assay format, the infection of Jurkat cells is measured via real-time quantitative PCR (qPCR) determination of the proviral load (PVL). […] A block in the integration reaction was confirmed by Alu-qPCR experiments (Supplementary Fig. 6). […] We suspect this is owing to a more efficient uptake of BIC than RAL by Jurkat T cells.
MT-2 and E6.1 Jurkat T-cell lines (ATCC) were used for the experiments. The cells were cultured at 37 °C with 5% CO2 and maintained in Roswell Park Memorial Institute (RPMI) media supplemented with 10% fetal bovine serum (FBS), 100 U penicillin, 100 μg/mL streptomycin and 0.25 μg/mL fungizone.
The HTLV-1 cell-to-cell infection was performed as previously described; Jurkat T cells were counted and diluted in complete RPMI to a final concentration of 0.25 × 10^6 cells/ml and pre-treated with INSTI drugs (final concentration ranging from 0.2 pM to 2 μM) or DMSO as a control for 24 h. MT-2 cells were resuspended in RPMI at a concentration of 2 × 10^6 cells/ml and subjected to a nonlethal γ-radiation dose of 400 Gy. Cells were resuspended at a concentration of 2 × 10^6 cells/ml in serum-free RPMI supplemented with the corresponding INSTI drug. Co-culture of 0.5 × 10^6 for each cell line was carried out for 16 h, after which cells were washed in PBS and resuspended in 1 ml of depletion buffer (PBS, 0.1% FBS and 2 mM EGTA). MT-2 cells were depleted from the culture by means of anti-CD25 magnetic beads (DynabeadsTM CD25, Thermo Fisher). Depletion efficiency was confirmed via flow cytometry as described previously. Jurkat cells were cultured for 2 weeks in complete RPMI supplemented with the drugs and genomic DNA was extracted (DNeasy kit, Qiagen) and stored at −20 °C for subsequent analysis. All the experiments were done in triplicate.
The PVL was measured as previously described[9],[53],[54]. Jurkat genomic DNA was quantified and diluted to a concentration of 5 ng/μL. Real-time qPCR analysis were conducted on 20 ng of gDNA to measure the level of HTLV-1 tax and gapdh genes (Supplementary Table 5). For the standard curve, the gDNA from an HTLV-1 naturally infected T-cell clone (clone 11.50, courtesy of professor Charles Bangham), which has one copy of tax and two of gapdh, was used. The integrated provirus copy number was calculated as follows: (tax copy numbers)/(2×gapdh copy number)[53], and normalised to the DMSO-treated control which was set to 100%. The PVL data were fitted to a dose–response curve in Prism 7 and the EC50 was calculated. Alu-PCR was performed as previously described in ref. [55]. In brief, the first PCR reaction was done with Phusion polymerase starting from 80 ng of gDNA using the ALU-specific primers (Alu-F/Gag-R). The nested PCR was run diluting the amplificated product 1:50. The reaction was done as a qPCR using Gag-specific primers (Gag-R/Gag-F) and the Luna SYBR dye reaction mix (New England Biolabs). The integrated provirus copy numbers were normalised to GAPDH and Jurkat cells treated with DMSO and infected with HTLV-1 were set to 100%. Experiments were done in triplicate.
(In general: In qPCR the cycle at which signal appears reflects the starting amount.)

Setting [1] is: MT-2-Jurkat cell-to-cell infection, proviral load, n = 3, read-out: HTLV-1 EC50 ± stdev.
Where [2] appears, read: Replicate 1, read-out: HTLV-1 infection EC50.
Where [3] appears, read: Replicate 2, read-out: HTLV-1 infection EC50.
Where [4] appears, read: Replicate 3, read-out: HTLV-1 infection EC50.
Setting [5] is: HTLV-1 infection of Jurkat T cells.

`CC(C)n1c(C(=O)N(C)C)c2c(c(O)c1=O)C(=O)N(Cc1ccc(F)c(Cl)c1)CC2` [XZ236, 6-(3-chloro-4-fluorobenzyl)-4-hydroxy-2-isopropyl-N,N-dimethyl-3,5-dioxo-2,3,5,6,7,8-hexahydro-2,6-naphthyridine-1-carboxamide, reference compound]: the EC50 is 3.74 ± 1.42 nM under setting [1], 5.38 nM under setting [2], 1.48 nM under setting [3] and 4.41 nM under setting [4].

With `Nc1c(C(=O)NCc2ccc(F)cc2F)c(=O)n(O)c2ncc(CCCO)cc12` [XZ423, 4-amino-N-(2,4-difluorobenzyl)-1-hydroxy-6-(3-hydroxypropyl)-2-oxo-1,2-dihydro-1,8-naphthyridine-3-carboxamide], the EC50 under setting [1] turned out to be 4.11 ± 1.52 nM, the EC50 under setting [2] turned out to be 3.95 nM, the EC50 under setting [3] came out at 3.49 nM and the EC50 under setting [4] turned out to be 1.75 nM.

As for `Nc1c(C(=O)NCc2ccc(F)cc2F)c(=O)n(O)c2ncc(CCS(=O)(=O)c3ccccc3)cc12` [XZ446, 4-amino-N-(2,4-difluorobenzyl)-1-hydroxy-2-oxo-6-(2-(phenylsulfonyl)ethyl)-1,2-dihydro-1,8-naphthyridine-3-carboxamide], the “improvement in EC50 compared with RAL” value under setting [5] is ~2.5- to fivefold and two- to fivefold. Also, the EC50 stood at 2.57 ± 0.81 nM under setting [1], 3.46 nM under setting [2], 2.16 nM under setting [3] and 1.94 nM under setting [4].

Regarding `Nc1c(C(=O)NCc2ccc(F)cc2F)c(=O)n(O)c2ncc(CCC(=O)NCCO)cc12` [XZ448, 4-amino-N-(2,4-difluorobenzyl)-1-hydroxy-6-(3-((2-hydroxyethyl)amino)-3-oxopropyl)-2-oxo-1,2-dihydro-1,8-naphthyridine-3-carboxamide], the “lower activity in blocking HTLV-1 infection compared with RAL” value under setting [5] is listed as ~ 20 fold. For the same molecule, the EC50 is, setting by setting: under setting [1], 139 ± 81 nM; under setting [2], 125 nM; under setting [3], 146 nM; under setting [4], 116 nM.

With `CN(C)C(=O)CCc1cnc2c(c1)c(N)c(C(=O)NCc1ccc(F)cc1F)c(=O)n2O` [XZ450, 4-amino-N-(2,4-difluorobenzyl)-6-(3-(dimethylamino)-3-oxopropyl)-1-hydroxy-2-oxo-1,2-dihydro-1,8-naphthyridine-3-carboxamide], the “improvement in EC50 compared with RAL” value under setting [5] was ~2.5- to fivefold and two- to fivefold. The EC50 (Primate T-lymphotropic virus 1, read-out: HTLV-1 EC50 ± stdev, MT-2-Jurkat cell-to-cell infection, proviral load, n = 3) was 1.67 ± 1.52 nM; the EC50 (Primate T-lymphotropic virus 1, read-out: HTLV-1 infection EC50, Replicate 1) was found to be 2.34 nM; the EC50 (Primate T-lymphotropic virus 1, read-out: HTLV-1 infection EC50, Replicate 2) was found to be 1.89 nM; the EC50 (Primate T-lymphotropic virus 1, read-out: HTLV-1 infection EC50, Replicate 3) was 1.25 nM.
